Test systems include RXF 393 renal; A549 NSCLC; A498 renal; SNB-75 CNS; HOP-62 NSCLC; SN12C renal; UO-31 renal; BT-549 breast; OVCAR-8 ovarian; SK-MEL-2 melanoma; IGROV1 ovarian.
Common to all, as to assay: DTP human tumour cell line panel, 48 h

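Cells were grown in 96-well plates and exposed to each compound for 48 hours at five concentrations; endpoints were interpolated linearly between bracketing concentrations, or set to the highest concentration if not reached. GI50 = concentration required for 50% inhibition of growth. TGI: concentration producing complete growth inhibition.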 Bounds are passed on as bounds.

What is called TGI is the concentration giving total growth inhibition. A low value points to greater sensitivity of the cells. A word on the GI50: it is the concentration at which growth is held to half of that of the control.

For the compound `CSc1ncc2c(n1)-c1ccccc1OC2NC(C)(C)C` (configuration not stated), the TGI was greater than 100 µM in the test with RXF 393 renal; greater than 100 µM in the test with A549 NSCLC; 7.36 µM in the test on A498 renal; 88.1 µM in the test with SNB-75 CNS; greater than 100 µM in the test on HOP-62 NSCLC; greater than 100 µM in the test on SN12C renal. For the same compound, the TGI with UO-31 renal, in the test on BT-549 breast and in the test on OVCAR-8 ovarian was greater than 100 µM each time.

For `COC(=O)/C=C/c1cc(OC)c2oc(-c3ccc(OC)c(OC)c3)c(C(=O)OC)c2c1`, the TGI in the test on A549 NSCLC, with A498 renal, in the test on SK-MEL-2 melanoma, in the test on IGROV1 ovarian, with SN12C renal and in the test with UO-31 renal was greater than 100 µM each time. The TGI in the test with BT-549 breast and in the test with OVCAR-8 ovarian was greater than 100 µM each time.

In the case of `COc1cc(OC)c2c(O)c(S(=O)(=O)c3ccc(C)cc3)c(=O)oc2c1`, the TGI in the test on RXF 393 renal, in the test with A549 NSCLC, in the test on A498 renal, in the test with SNB-75 CNS, in the test on SK-MEL-2 melanoma and with IGROV1 ovarian was greater than 100 µM throughout. For the same compound, the TGI in the test on SN12C renal, in the test on UO-31 renal, with BT-549 breast and with OVCAR-8 ovarian was greater than 100 µM in each case.

Consider `CCn1c2ccc(O)c(C(=O)OC)c2c2cc3ccccc3c(O)c21`, for which the TGI in the test with RXF 393 renal is greater than 100 µM; in the test with A549 NSCLC, 83 µM; in the test on A498 renal, 39.5 µM; in the test on SK-MEL-2 melanoma it was 36.6 µM; with HOP-62 NSCLC it was 45 µM; in the test on IGROV1 ovarian, 31.2 µM. The TGI with SN12C renal is 41.6 µM; in the test on UO-31 renal, greater than 100 µM; in the test on BT-549 breast, 50.7 µM; in the test on OVCAR-8 ovarian, 56.9 µM.

Regarding `Cc1nn(C)c2nc3ccc(Cl)cc3c(-c3ccccc3)c12`, the TGI in the test on RXF 393 renal, in the test on A549 NSCLC, in the test on A498 renal, in the test on SNB-75 CNS, in the test with SK-MEL-2 melanoma and with HOP-62 NSCLC was greater than 100 µM each time. The concentration for total growth inhibition (TGI) in the test on SN12C renal, in the test on UO-31 renal, in the test with BT-549 breast and in the test on OVCAR-8 ovarian was greater than 100 µM in each case.

As to `Nc1ccc(-c2nc3ccc(F)cc3s2)cc1`, the TGI was greater than 100 µM with A549 NSCLC; 80.3 µM in the test with A498 renal; 95 µM in the test on SNB-75 CNS; 39.6 µM in the test with SK-MEL-2 melanoma; 90.8 µM in the test on HOP-62 NSCLC; 71.9 µM with IGROV1 ovarian. Also, the TGI with SN12C renal, in the test on UO-31 renal, with BT-549 breast and in the test on OVCAR-8 ovarian was greater than 100 µM in each case. In the test with IGROV1 ovarian, the GI50 is 21.3 µM.

For the compound `COc1cc(OC)cc(-n2c(N)c(-c3nc4ccccc4n3C)c3ccc([N+](=O)[O-])cc3c2=O)c1`, the TGI with A549 NSCLC was greater than 100 µM; with A498 renal, greater than 100 µM; in the test with SNB-75 CNS it was 63.9 µM; with SK-MEL-2 melanoma it was greater than 100 µM; in the test with SN12C renal it was greater than 100 µM; in the test with UO-31 renal, greater than 100 µM. Moreover, the TGI in the test with BT-549 breast and with OVCAR-8 ovarian was greater than 100 µM throughout.

On to `N#Cc1c(Nc2nc3ccccc3s2)c2ccccc2n2c1nc1ccccc12`, for which the TGI is greater than 100 µM in the test with A549 NSCLC; greater than 100 µM in the test with A498 renal; 81 µM with SNB-75 CNS; greater than 100 µM in the test with SK-MEL-2 melanoma; greater than 100 µM in the test with HOP-62 NSCLC; greater than 100 µM in the test on IGROV1 ovarian. Moreover, the TGI in the test on SN12C renal, in the test on UO-31 renal, in the test on BT-549 breast and with OVCAR-8 ovarian was greater than 100 µM in each case.

On to `CC1(C)CC2=C(Sc3ccccc3N2)C(=O)C1C(=O)C(=O)Nc1cc(Cl)ccc1Cl` (configuration not stated), for which the TGI in the test on RXF 393 renal, in the test with A549 NSCLC, in the test with A498 renal, with SNB-75 CNS, in the test with SK-MEL-2 melanoma and in the test with IGROV1 ovarian was greater than 100 µM in each case. Also, the TGI in the test on SN12C renal, in the test with UO-31 renal, in the test with BT-549 breast and in the test with OVCAR-8 ovarian was greater than 100 µM throughout.

As for `CN(C)C(=O)C(F)(F)C(c1ccc(Br)cc1)C1C(=O)N(C)C(=O)N(C)C1=O` (configuration not stated), the TGI in the test with RXF 393 renal, in the test on A549 NSCLC, in the test on A498 renal, in the test with SNB-75 CNS, with SK-MEL-2 melanoma and in the test with HOP-62 NSCLC was greater than 100 µM each time. For the same compound, the TGI in the test with UO-31 renal and in the test with BT-549 breast was greater than 100 µM each time.

For the compound `O=C1NC2CCCCC2N=C1/C(C(=O)c1ccccc1)=C(\O)c1ccccc1` (configuration not stated), the TGI in the test on RXF 393 renal, with A549 NSCLC, in the test with A498 renal, in the test on SK-MEL-2 melanoma, in the test on HOP-62 NSCLC and in the test on IGROV1 ovarian was greater than 100 µM each time. The total growth inhibition concentration (TGI) in the test on SN12C renal is greater than 100 µM; in the test on UO-31 renal, 78.7 µM; in the test with BT-549 breast, 55.3 µM; in the test on OVCAR-8 ovarian it was 86.6 µM.

`Cn1c2c(c3ccccc31)CCN1C(=O)C3SC21C1C(=O)N(c2ccccc2)C(=O)C31` (configuration not stated): the TGI in the test on RXF 393 renal was greater than 100 µM; in the test on A549 NSCLC, greater than 100 µM; with A498 renal it was greater than 89.7 µM; in the test on SNB-75 CNS it was greater than 100 µM; in the test with HOP-62 NSCLC, greater than 100 µM; with IGROV1 ovarian, greater than 100 µM. The TGI in the test on SN12C renal, with UO-31 renal, in the test on BT-549 breast and in the test with OVCAR-8 ovarian was greater than 100 µM throughout. Besides, the GI50 in the test on SNB-75 CNS is 13.4 µM.

Take `COP(=O)(OC)C(NC=O)P(=O)(OC)OC`: the TGI in the test on RXF 393 renal, with A549 NSCLC, with A498 renal, in the test on HOP-62 NSCLC, with IGROV1 ovarian and with SN12C renal was greater than 100 µM each time. Besides, the TGI in the test on UO-31 renal, with BT-549 breast and in the test on OVCAR-8 ovarian was greater than 100 µM each time.

For the compound `CC1C2CC(C/C2=N/O)C1(C)C` (configuration not stated), the TGI in the test with RXF 393 renal, in the test with A549 NSCLC, in the test with A498 renal, in the test on SNB-75 CNS, with HOP-62 NSCLC and in the test on IGROV1 ovarian was greater than 100 µM throughout. Further, the TGI in the test with SN12C renal, in the test with UO-31 renal, in the test with BT-549 breast and in the test on OVCAR-8 ovarian was greater than 100 µM in each case.

With `O=S1(=O)C(c2ccccc2)=C(O)c2ccccc21`, the TGI in the test with RXF 393 renal, in the test with A549 NSCLC, in the test with A498 renal, with SNB-75 CNS, in the test with SK-MEL-2 melanoma and in the test on HOP-62 NSCLC was greater than 100 µM in each case. For the same compound, the TGI with IGROV1 ovarian, with UO-31 renal, with BT-549 breast and in the test on OVCAR-8 ovarian was greater than 100 µM each time.

For the compound `Cc1nn(C(=O)c2ccncc2)c2c1C(c1cccc([N+](=O)[O-])c1)SC(N)=N2` (configuration not stated), the TGI in the test on RXF 393 renal, in the test on A549 NSCLC, in the test on SNB-75 CNS, in the test on SK-MEL-2 melanoma, in the test on HOP-62 NSCLC and with IGROV1 ovarian was greater than 10 µM in each case. Moreover, the TGI in the test on SN12C renal, with BT-549 breast and with OVCAR-8 ovarian was greater than 10 µM each time.

As for `S=C(N/N=C\c1ccccn1)N(Cc1ccccn1)Cc1ccccn1`, the TGI is 32.2 µM with RXF 393 renal; greater than 42 µM with A549 NSCLC; 20.2 µM with SNB-75 CNS; 37.9 µM in the test with SK-MEL-2 melanoma; 41.7 µM in the test with HOP-62 NSCLC; 11.2 µM with IGROV1 ovarian. In addition, the TGI with SN12C renal was determined as 25.7 µM; in the test on UO-31 renal it was 7.87 µM; in the test on BT-549 breast, 12.9 µM; in the test with OVCAR-8 ovarian it was 12.7 µM.

For the compound `N#CC1(c2ccccc2)CCN(C2(c3ccccc3)CCCCC2)CC1`, the TGI in the test with RXF 393 renal, with A549 NSCLC, with SNB-75 CNS, in the test with SK-MEL-2 melanoma, with HOP-62 NSCLC and in the test with IGROV1 ovarian was greater than 100 µM each time. Moreover, the TGI in the test on SN12C renal, with UO-31 renal, with BT-549 breast and in the test with OVCAR-8 ovarian was greater than 100 µM in each case.

As to `CC(=O)C12C[C@](C#N)(N3CCCCCC3)C1C=Cc1ccccc12` (some centres not stated), the TGI in the test on RXF 393 renal, in the test on A549 NSCLC, with SNB-75 CNS, in the test with HOP-62 NSCLC, in the test on IGROV1 ovarian and with SN12C renal was greater than 100 µM throughout. Moreover, the TGI with UO-31 renal, in the test with BT-549 breast and in the test on OVCAR-8 ovarian was greater than 100 µM throughout.

On to `COc1ccc(/C(=N/Nc2nc3ccccc3[nH]2)C(=O)O)cc1`, for which the TGI in the test with A549 NSCLC, with A498 renal, in the test with SNB-75 CNS, in the test with SK-MEL-2 melanoma, in the test with HOP-62 NSCLC and in the test with IGROV1 ovarian was greater than 100 µM in each case. Further, the concentration for total growth inhibition (TGI) in the test with SN12C renal, in the test with UO-31 renal, in the test on BT-549 breast and in the test with OVCAR-8 ovarian was greater than 100 µM each time.

Regarding `[N-]=[N+]=NC[C@H]1OCO[C@H](CN=[N+]=[N-])[C@H]2OCCOCCOc3ccccc3OCCOCCO[C@@H]21`, the TGI in the test on RXF 393 renal, in the test with A549 NSCLC, with SNB-75 CNS, in the test on SK-MEL-2 melanoma, with HOP-62 NSCLC and in the test with IGROV1 ovarian was greater than 100 µM in each case. Moreover, the TGI in the test with SN12C renal, in the test with UO-31 renal, in the test on BT-549 breast and in the test on OVCAR-8 ovarian was greater than 100 µM throughout.

The values are drawn from PubChem BioAssay (NCI).
